Results on seven compounds are retold here after patent US20080318933A1, “5-Sulfonyl-1-Piperidinyl Substituted Indole Derivatives as 5-Ht6 Receptor Antagonists for the Treatment of Cns Disorders” (Glaxo Group Limited, priority 2004, published 2008).

Where a name gives a salt, the structure may show the parent alone.

In the assay the target is T1, human cloned 5-HT6 receptors (Homo sapiens, UniProt P50406).
T1 construct: expressed in transfected cells; host or cells: HeLa cells expressing cloned human 5-HT6 receptor (membranes)
T1 sequence (P50406 whole entry): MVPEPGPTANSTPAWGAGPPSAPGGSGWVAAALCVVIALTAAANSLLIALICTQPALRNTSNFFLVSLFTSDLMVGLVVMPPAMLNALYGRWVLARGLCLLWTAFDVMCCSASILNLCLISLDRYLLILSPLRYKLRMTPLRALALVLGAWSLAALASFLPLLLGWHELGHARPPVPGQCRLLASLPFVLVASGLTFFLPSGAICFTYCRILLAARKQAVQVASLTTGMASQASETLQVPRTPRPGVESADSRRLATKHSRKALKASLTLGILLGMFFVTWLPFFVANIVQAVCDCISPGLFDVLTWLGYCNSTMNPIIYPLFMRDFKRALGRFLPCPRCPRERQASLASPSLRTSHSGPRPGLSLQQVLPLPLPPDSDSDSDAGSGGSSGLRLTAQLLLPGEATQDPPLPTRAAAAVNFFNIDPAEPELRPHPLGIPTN
In words: Cyclase assay (cAMP production in membranes of HeLa 5HT6 cells, 5-HT stimulated). It counts as biochemical. To be noted: 5-HT at 4xEC50, functional Ki by Cheng-Prusoff, read-out: pKi values (converted). Here is the method: 0.5 μl of test compound in 100% dimethylsulfoxide (DMSO) was added to a white, solid 384 well assay plate (for dose response measurements the top of the concentration range is 7.5 μM final). 10 μl of washed membranes of HeLa 5HT6 cells (for preparation see WO 98/27081) in basic buffer (50 mM HEPES pH 7.4 (KOH), 10 mM MgCl2, 100 mM NaCl, 10 μM 3-isobutyl-1-methylxanthine (IBMX) (Sigma-Aldrich)) was added to all wells followed by 10 μl 2×ATP buffer (i.e. basic buffer containing 3 mM ATP) with 5-HT (at a concentration equivalent to a dose response of 4×EC50). The resultant mixture was then incubated at room temperature for 30-45 minutes to allow cAMP production. cAMP production was then measured using the DiscoveRX™ HitHunter™ chemiluminescence cAMP assay kit (DiscoveRx Corporation, 42501 Albrae Street, Fremont, Calif. 94538; Product Code: 90-0004L) or any other suitable cAMP measurement assay.
IC50 values were estimated from arbitrary designated unit (ADU) measurements from a Perkin Elmer Viewlux instrument using a four parameter logistic curve fit within EXCEL (Bowen, W. P. and Jerman, J. C. (1995), Nonlinear regression using spreadsheets. Trends in Pharmacol. Sci., 16, 413-417). Functional Ki values were calculated using the method of Cheng, Y. C. and Prussof, W. H. (Biochemical Pharmacol (1973) 22 3099-3108). plC50 and fpKi are the negative log 10 of the molar IC50 and functional Ki respectively.
With `Cc1nc(C)c(S(=O)(=O)c2ccc3c(c2)CCN3C2CCNCC2)s1` [Example E28, 5-[(2,4-Dimethyl-1,3-thiazol-5-yl)sulfonyl]-1-(4-piperidinyl)-2,3-dihydro-1H-indole hydrochloride], the Ki was at most 10 nM. With `CCCN1CCC(N2CCc3cc(S(=O)(=O)c4ccccc4F)ccc32)CC1` [Example E46, 5-[(2-Fluorophenyl)sulfonyl]-1-(1-propyl-4-piperidinyl)-2,3-dihydro-1H-indole hydrochloride], the Ki was at most 10 nM.

For the compound `O=S(=O)(c1ccccc1)c1cc(F)c2c(c1)CCN2C1CCNCC1` [Example E18a, 7-Fluoro-5-(phenylsulfonyl)-1-(4-piperidinyl)-2,3-dihydro-1H-indole hydrochloride], the Ki is at most 10 nM. Turning to `CCCN1CCC(N2CCc3cc(S(=O)(=O)c4ccccc4)ccc32)CC1` [Example E40, 5-(Phenylsulfonyl)-1-(1-propyl-4-piperidinyl)-2,3-dihydro-1H-indole hydrochloride], the Ki was at most 10 nM.

Consider `CN1CCC(N2CCc3cc(S(=O)(=O)c4cc(F)cc(F)c4)ccc32)CC1` [Example E50, 5-[(3,5-Difluorophenyl)sulfonyl]-1-(1-methyl-4-piperidinyl)-2,3-dihydro-1H-indole hydrochloride], for which the Ki was at most 10 nM. Consider `CCN1CCC(n2ccc3cc(S(=O)(=O)c4cc(F)cc(F)c4)ccc32)CC1` [Example E35, 1-(1-Ethyl-4-piperidinyl)-5-[(3,5-difluorophenyl)sulfonyl]-1H-indole hydrochloride], for which the Ki is at most 10 nM. On to `CN1CCC(N2CCc3cc(S(=O)(=O)c4ccccc4)ccc32)CC1` [Example E4, 1-(1-Methyl-4-piperidinyl)-5-(phenylsulfonyl)-2,3-dihydro-1H-indole hydrochloride], for which the Ki is at most 10 nM.
